Data published in article PMC11428593 (Antibiotics, 2024).
Converted amounts (≈) assume the structure as drawn. “And” between values parts separate entries of the source, which are not always exact repeats. Identical values can stand only once. Like-named read-outs stand apart in the source and are kept apart here.

Tests used:
[1] = test system: S. aureus strain USA300LAC; assay: Checkerboard assay with JC-01-074 (FIC index); format: cell-based, Staphylococcus aureus; settings: MHB, 37 °C, 20 h, antibiotic combined with JC-01-074
Method: Therefore, we tested whether the membrane-disrupting effects of JC-01-074 could increase the sensitivity of the S. aureus strain USA300LAC to antibiotics of different classes; for instance, by facilitating their uptake into the cytoplasm. […] Antibiotic concentrations were prepared by the microbroth dilution in MHB based on their MIC values (Table 1) to obtain the final concentrations as outlined in the 96-well plate scheme for each antibiotic tested (Supplementary Figure S3). Overnight USA300LAC cultures were diluted to 5 × 10^5 CFU/mL in MHB, and the growth was recorded at 37 °C and 200 rpm for 20 h in the presence and absence of the indicated antibiotic.
FICs were calculated as the ratio of the MIC of the antimicrobial in combination with the MIC of the antimicrobial alone. Interactions were categorized as synergistic (<0.5), additive or no interaction (0.5–2), and antagonistic (>2). FICs were calculated from three biological replicates.
Following previous studies, the checkerboard assay was employed to determine whether JC-01-074 had synergistic effects in combination with members of different antibiotic classes. The indicated antibiotics tested in combination were first serially diluted two-fold in MHB on a longitudinal axis in a 96-well polystyrene plate. JC-01-074 was then serially diluted two-fold across the 96-well plate horizontal axis. The plates were inoculated with USA300LAC to a final inoculum concentration of 5 x10^5 CFU/mL (O.D.600nm = 0.0001) and incubated overnight at 37 °C for 20 h. The growth was measured at 600 nm in a Tecan 200 Infinite Pro microplate reader. The fractional inhibitory concentration was calculated as follows:FIC = MICJC-01-074 + antibiotics/[…]
The classification of interactions was based on the FIC index: interactions were categorized as synergistic (FIC ≤ 0.5), additive/no interaction (FIC 0.5–2.0), and antagonistic (FIC > 2.0).

[2] = test system: MRSA USA300LAC; assay: MIC by broth microdilution (CLSI); format: cell-based, Staphylococcus aureus; settings: for MIC: Staphylococcus aureus, MRSA USA300LAC, MHB, 37 °C, 16 h, read-out: MIC
Method: (§1) The MIC values of the alkyl pyridinol derivatives against the S. aureus strain ATCC 25923, MRSA strains ATCC 33591, ATCC BAA-44, and USA300LAC, as well as the P. aeruginosa strain ATCC 27853, were determined by following the CLSI guidelines for the broth microdilution antibiotic sensitivity testing protocol. In brief, the overnight cultures were diluted into Mueller Hinton Broth (MHB) to a final inoculum concentration of 5 × 10^5 CFU/mL (O.D600nm = 0.00001) and dispensed into a 96-well polystyrene plate (Alkali Scientific, Fort Lauderdale, FL, USA). Alkyl pyridine compounds were diluted into inoculated MHB to the indicated concentrations from stock solutions that would allow for DMSO concentrations below 5%, resulting in a total volume of 200 μL per well. The plates were subsequently incubated at 37 °C for 16 h at 300 rpm. The MIC values, which are defined as the lowest compound concentration that inhibited growth, were determined from three biological replicates.

[3] = test system: 3T3 mouse embryonic fibroblast cells; assay: MTT cytotoxicity assay; format: cell-based; settings: 3T3 cells; for IC50: Mus musculus, NIH3T3, 24 h
Method: To gauge the potential for toxicity of the new alkyl pyridinol derivates, we tested their cytotoxicity by examining the metabolic activity of 3T3 mouse embryonic fibroblast cells using the tetrazolium dye 3-(4,5-dimethylthiazol-2-yl)-2,5-diphenyltetrazolium bromide (MTT), as has been done before. The dye is reduced by NAD(P)H-dependent cellular oxidoreductases, resulting in the formation of the insoluble formazan with its purple color, which can be quantified. 3T3 cells were treated with different concentrations of the alkyl pyridinol compounds for 24 h, and the absorbance of the MTT-treated cell culture supernatant was measured at 540 nm. Absorbances were plotted against concentrations of the compound added (Supplementary Figure S2), and IC50, the concentration of a drug required for 50% metabolic inhibition, was calculated for each compound. […] However, the concentrations at which these compounds compromise 3T3 mouse embryonic fibroblast cells are well above their reported MICs (Table 2).
3T3 cells (male mouse embryonic fibroblast Flp-In cells, Thermo Fisher, Waltham, MA, USA) were cultured in D-MEM (Corning, Corning, NY, USA) supplemented with 10% Fetal Clone III (Cytiva Hyclone, Bengaluru, India) and L-Glutamine (Alfa Aesar, Haverhill, MA, USA) at 37 °C and 5% CO2. To determine the compound’s toxicity, 3T3 cells were seeded at a density of 10,000 cells/well into 96-well plates (Fisherbrand, Waltham, MA, USA) and cultured as described above. After 16 h, the culture medium was extracted and replaced by supplemented D-MEM without phenol red (Corning, Glendale, AZ, USA) containing individual compounds in the indicated concentrations. Furthermore, 1% sodium dodecyl sulfate (SDS) and 2% dimethyl sulfoxide (DMSO), equivalent to the volume of the DMSO in the highest compound concentration, were used as the cell death and vehicle control, respectively. Moreover, 16 h after compound treatment, the culture medium was extracted again and replaced by fresh supplemented D-MEM without phenol red. Subsequently, 10 µL of 5 mg/mL MTT reagent (Alfa Aesar, Haverhill, MA, USA), dissolved in DMSO, was added to each well, and the cells were incubated for 2 h at 37 °C and 5% CO2. Next, 85 µL of the culture supernatant was removed from each well, mixed with 50 µL of DMSO, and incubated in an optical grade 96-well plate (Fisherbrand, Waltham, MA, USA) in a shaking incubator at 37 °C and 250 rpm. The absorbance of the MTT-treated cell culture supernatant was measured at 540 nm in an ELx808 plate reader (Biotek, Winooski, VT, USA).

[4] = test system: MRSA USA300LAC; assay: Minimal bactericidal concentration (MBC); format: cell-based, Staphylococcus aureus; settings: for bactericidal or bacteriostatic effect: USA300LAC, in words
Method: In brief, 10 µL of each culture was serially diluted and plated onto prewarmed LB agar and incubated overnight at 37 °C under static conditions to observe the colony-forming units (CFUs). The concentration at which no CFUs were observed was recorded as the MBC.

[5] = test system: S. aureus ATCC 25923; assay: MIC by broth microdilution (CLSI); format: cell-based; settings: Staphylococcus aureus, ATCC25923, MHB, 37 °C, 16 h
Source text: (§2) To assess the impact of the nitrogen position in our newly synthesized anaephene derivates, we analyzed their antimicrobial activities against various S. aureus strains, including ATCC 25,923 and the two methicillin-resistant S. aureus (MRSA) strains ATCC 33,591 and ATCC BAA-44. […] We determined the minimum inhibitory concentrations (MIC) of each of our compounds against the different bacterial strains by broth microdilution following the CLSI guidelines. As expected, all five compounds tested were completely ineffective against the Gram-negative P. aeruginosa strain ATCC 27,853 (Table 1).
as §1

[6] = test system: P. aeruginosa ATCC 27853; assay: MIC by broth microdilution (CLSI); format: cell-based; settings: Pseudomonas aeruginosa, ATCC27853, MHB, 37 °C, 16 h
Source text: as §2, §1

[7] = test system: MRSA ATCC 33591; assay: MIC by broth microdilution (CLSI); format: cell-based; settings: Staphylococcus aureus, MHB, 37 °C, 16 h
Source text: as §2, §1

[8] = test system: MRSA ATCC BAA-44; assay: MIC by broth microdilution (CLSI); format: cell-based; settings: Staphylococcus aureus, MHB, 37 °C, 16 h
Source text: as §2, §1

[9] = test system: USA300LAC cells; assay: Propidium iodide uptake assay (membrane damage); format: cell-based, Staphylococcus aureus; settings: up to 2× MIC, 1 h exposure
Source text: The alkyl pyridinol derivates synthesized in this study are characterized by high lipophilicity. To determine whether and to what extent these compounds incorporate into and disrupt the phospholipid bilayer of the S. aureus cell envelope, we performed a propidium iodide (PI) uptake assay. Given the membrane-impermeable nature of PI, the fluorophore can be used to assess membrane disruption in cells by measuring its non-specific interaction with DNA, which leads to enhanced fluorescence. […] The extent of membrane damage caused by JC-01-074 occurred in a dose-dependent manner.
Figure 4 JC-01-074 causes significant membrane damage in S. aureus. Membrane damage was evaluated via propidium iodide (PI) staining. […] Treatment of USA300LAC with 2.5% DMSO, 4 µg/mL vancomycin, and 0.25% SDS were included as negative and positive controls, respectively. Cells were collected, washed, resuspended in PBS, and stained with 1 µM PI. PI fluorescence was measured (exc./em. wavelengths: 535/615 nm) and normalized to OD600nm. One-way ANOVA, Dunnett’s multiple-comparison test (* p < 0.05, **** p < 0.0001); (n = 3, ±S.D.).
The plasma membrane integrity was determined using the Propidium Iodide Uptake assay, as previously described. Briefly, the overnight cultures of USA300LAC were diluted into fresh TSB media, grown to an early log phase at 37 °C and 300 rpm, and treated with either DMSO, an alkyl pyridinol derivate, vancomycin, or SDS at the indicated concentrations for 1 h. Following two washing steps, the cells were then resuspended in phosphate-buffered saline (PBS), pH = 7.4, and subsequently stained with 1 µM propidium iodide (PI). The PI fluorescence intensity was determined at an excitation wavelength of 535 nm and an emission wavelength of 615 nm.

[10] = test system: S. aureus/MRSA strains; assay: MIC by broth microdilution, S. aureus/MRSA strains; format: cell-based, Staphylococcus aureus; settings: for MIC: Staphylococcus aureus, MRSA, S. aureus/MRSA strains tested, strain not singled out, read-out: MIC
Source text: as §2, §1

[11] = 24 h treatment, mean ± S.D., read-out: IC50

MIC [2] | MIC [5] | MIC [6] | MIC [7] | MIC [8] | Compound | interaction with JC-01-074 (sum of FIC values) [1] | IC50 [3, 11] | other results
2.33 µg/mL (≈ 6.67 µM) | – | – | – | – | CC1(C)S[C@@H]2[C@H](NC(=O)[C@H](N)c3ccccc3)C(=O)N2[C@H]1C(=O)O [Ampicillin] | additive (additive/no interaction (FIC 0.5–2.0)) | – | –
4 µg/mL (≈ 12.4 µM) | – | – | – | – | O=C(N[C@H](CO)[C@H](O)c1ccc([N+](=O)[O-])cc1)C(Cl)Cl [Chloramphenicol] | – | – | –
– | – | – | – | – | O=C(O)c1cn(C2CC2)c2cc(N3CCNCC3)c(F)cc2c1=O [Ciprofloxacin] | antagonistic (antagonistic (FIC > 2.0)) | – | –
0.125 µg/mL (≈ 0.281 µM) | – | – | – | – | C[C@H]1c2cccc(O)c2C(=O)C2=C(O)[C@]3(O)C(=O)C(C(N)=O)=C(O)[C@@H](N(C)C)[C@@H]3[C@@H](O)[C@@H]21 [Doxycycline] | antagonistic (antagonistic (FIC > 2.0)) | – | –
32 µg/mL (≈ 98.7 µM) | 1 µg/mL (≈ 3.08 µM) | > 128 µg/mL | 0.5 µg/mL (≈ 1.54 µM) | 1 µg/mL (≈ 3.08 µM) | CCCCCCCCCC#Cc1cc(O)cc(Br)n1 [EA-02-009] | – | 107 ± 82.3 µM | IC50 of single biological replicates (Figure S2) ([3]; 24 hours, one value per biological replicate, listed as EA-02-09): 16.1 µg/ml and 17.4 µg/ml and 31.4 µg/ml and 73.2 µg/ml; MBC ([4]; Staphylococcus aureus, MRSA USA300LAC, concentration at which no CFUs were observed): > 128 µg/mL; bactericidal or bacteriostatic effect [4]: bacteriostatic; bactericidal or bacteriostatic effect ([4]; listed as EA-002-009): no significant killing; changes in PI intensity [9]: minimal changes; MIC [10]: 0.5 to 1 µg/mL (≈ 1.54 to 3.08 µM)
– | 32 µg/mL (≈ 130 µM) | > 128 µg/mL | 32 µg/mL (≈ 130 µM) | 32 µg/mL (≈ 130 µM) | CCCCCCCCCC#Cc1cc(O)ccn1 [EA-02-011] | – | 43.6 µM and 10.7 µg/mL | IC50 of single biological replicates (Figure S2) ([3]; 24 hours, one value per biological replicate, listed as EA-02-11): 10.9 µg/ml and 8.6 µg/ml; IC50 ([3]; 24 hours, one value per biological replicate, read-out: IC50 of single biological replicates (Figure S2)): 12.7 µg/mL; MIC [10]: 32 µg/mL (≈ 130 µM)
1 µg/mL (≈ 2.09 µM) | – | – | – | – | CNC(C)C1CCC(N)C(OC2C(N)CC(N)C(OC3OCC(C)(O)C(NC)C3O)C2O)O1 (stereo not drawn) [Gentamycin] | additive (additive/no interaction (FIC 0.5–2.0)) | – | –
– | > 128 µg/mL | > 128 µg/mL | > 128 µg/mL | > 128 µg/mL | CCCCCCCCCC#Cc1cc(O)cc(C#CCCCCCCCCC)n1 [JC-01-083] | – | 78.2 µM and 31 µg/mL | IC50 of single biological replicates (Figure S2) ([3]; 24 hours, one value per biological replicate, listed as JC-01-83): 32 µg/ml and 43.5 µg/ml and 27.7 µg/ml and 20.8 µg/ml; antimicrobial activity against S. aureus/MRSA strains ([10]; in words): completely inactive
– | – | – | – | – | CCCCCCCCCC(=O)N[C@@H](Cc1c[nH]c2ccccc12)C(=O)N[C@H](CC(N)=O)C(=O)N[C@@H](CC(=O)O)C(=O)N[C@@H]1C(=O)NCC(=O)N[C@@H](CCCN)C(=O)N[C@@H](CC(=O)O)C(=O)N[C@H](C)C(=O)N[C@@H](CC(=O)O)C(=O)NCC(=O)N[C@H](CO)C(=O)N[C@@H]([C@H](C)CC(=O)O)C(=O)N[C@@H](CC(=O)c2ccccc2N)C(=O)O[C@@H]1C [daptomycin] | – | – | MIC (1× MIC as used for microscopy) ([2]; USA300LAC, stated in figure legend): 4 µg/mL
